From US6787356B1, “Cell expansion system for use in neural transplantation” (The United States of America as represented by the …, priority 1998, dated 2004)

How the values were obtained:
[1] = test system: E12 mesencephalic precursors; experiment: Dopaminergic differentiation of long-term expanded mesencephalic precursors, TH-ir cell count per well; type: cell-based, rat; conditions: for effect of antioxidants on dopaminergic cell number: FIG. 5, FIG. 6
Description: Ascorbic acid was obtained from SIGMA (A-1417: Lot 105H0138) and used at various concentrations ranging from 1 nM-1 mM to obtain a dose-response curve. The effect of ascorbic acid on dopaminergic differentiation of long-term expanded mesencephalic precursors was tested during early and late proliferation as well as during cell differentiation.
Briefly, E12 mesencephalic precursors were proliferated for 12-14 days in vitro with 20 ng/ml bFGF (average expansion factor 40-200 fold) followed by 4-7 days of differentiation upon bFGF withdrawal and exposure to the various differentiation agents refers to the experimental assay in general. We tested the effects of many possible differentiation agents such as NGF, BDNF, NT3, NT4/5, GDNF, SHH, FGF8, interleukin1, Neurturin, cGMP and many others.
Cells were treated with 100 uM ascorbic acid. Ascorbic acid was dissolved in PBS with 0.1% bovine serum albumin at 100 mM stock solution. It was then used in 1:1000 dilution by adding it directly into the culture medium Cells were then fixed in 0.15% picric acid/4% paraformaldehyde and stained for tyrosine-hydroxylase (PelFreeze P40101-0). The number of TH-ir cells per well were scored using a stereological counting frame.
A dose response curve of the effect of stereoisomer D-iso-ascorbic acid was established using D-iso Ascorbic acid (I-0502 SIGMA). D-iso-ascorbic acid was used with the same protocol as L-ascorbic acid regarding stock solution, concentrations and mode of application. D-iso ascorbic acid has the same anti-oxydative properties but different other biological properties than ascorbic acid.

[2] = test system: expanded and differentiated mesencephalic precursors; experiment: KCl evoked dopamine release of differentiated expanded precursors, HPLC; type: cell-based, rat
Description: Tissue culture was prepared as described in Example 1. The growth medium of expanded precursors from 3 independent culture series was collected after 5-7 days of differentiation under serum-free conditions and immediately stabilized by adding 88 μl of 85% orthophosphoric acid and 4.4 mg of metabisulfite to each sample ml. Additional cultures of the same series were placed in 5 ml Hank's basic salt solution (HBSS) for […] at 37° C. either under basal conditions (HBSS only) or under stimulation with 56 mM KCl. 56 mM KCl was added to assay evoked release, i.e., dopamine release in response to depolarization by KCl (depolarization by KCl leads to release of synaptic vesicles in neurons). This provides a more specific test than release in HBSS where synaptic release is not directly tested.
Dopamine staining was carried out on cultures using dopamine polyclonal 1:500 (Chemicon). The cultures were fixed in 5% glutaraldehyde and 1% metabisulfite in Tris buffer and then kept in metabisulfite containing solutions prior to incubation in the secondary antibody. Dopamine was extracted by aluminum adsorption as described by Studer et al. (1996) Brain Res.Bull. 41, 143-150. […] No dopamine was detected in unconditioned control medium and HBSS.

[3] = test system: differentiated mesencephalic precursor culture; experiment: Oxidative stress assays (lipid peroxydation, H2O2, oxidative stress marker staining); type: cell-based, rat; conditions: data not shown
Description: Lipid peroxydation is a colorimetric assay (OXIS BIOXYTECH® LPO-568™; Oxis International Inc.) and was used according to the specifications of the manufacturer. H2O2 assay measures the conversion of 2′,7′ dicholorofluorescin diacetate (Molecular Probes d-399) into 2′,7′ dicholorofluorescin catalyzed by H2O2. The assay was performed according to the specifications of the manufacturer. Immunohistochemistry for oxidative stress markers by the DAB-peroxidase technique was performed on cells differentiated in the presence or absence of ascorbic acid, glutathione or […] plus ebselin.

[4] = test system: bFGF expanded precursor derived TH+ neurons; experiment: Dopamine release of precursor derived TH+ neurons, reverse phase HPLC with electrochemical detection; type: cell-based, rat; conditions: conditioned medium, buffer solution, buffer + 56 mM KCl; FIG. 7 and 8
Description: To test the biochemical function of precursor derived tyrosine hydroxylase expressing (TH+) neurons, the supernatant was tested for dopamine release using reverse phase HPLC with electrochemical detection. Dopamine levels were assessed in conditioned medium (24 hours of incubation), HBSS buffer (15 minutes), HBSS buffer +56 mM KCl. Dopamine was subsequently extracted by aluminum absorption and measured by reverse phase HPLC with electrochemical detection.

[5] = test system: mesencephalic precursors expanded with bFGF for 11 days; conditions: dopamine 1 nM-1 mM; cAMP 1 mM; DMEM/F12/N2
[6] = test system: ventral mesencephalon cells of E12 rat embryos; experiment: Tissue culture expansion of mesencephalic precursors with bFGF; type: cell-based; conditions: from 800×10^3 cells; 10-20 ng bFGF/ml medium daily; N=12
Description: Tissue was obtained from the ventral mesencephalon of E12 rat embryos (Sprague Dawley, plug day=day 0,) as described by Studer et al. in Current Protocols in Neuroscience (eds McKay, R. D. & Gerfen, C. R.) John Wiley & Sons Inc., New York, (1997).
Tissue pieces were spun in a centrifuge at 209 g for 5 minutes and mechanically triturated to a quasi single cell suspension in HBSS and counted. 5 ml of cell suspension at a concentration of 150-200×10^3 cells/ml was plated on a 10 cm culture dish containing DMEM/F12/N2 medium (Bottenstein, J. E. & Sato, G. H. Growth of a rat neuroblastoma cell line in serum-free supplemented medium. Proc.Natl.Acad.Sci.USA 76, 514-517 (1979) (modified according to Johe, K. K., Hazel, T. G., Müller, T., Dugich-Djordjevic, M. M. & McKay, R. D. G. Single factors direct the differentiation of stem cells from the fetal and adult central nervous system. Genes and Development 10, 3129-3140 (1996)) that had been previously coated with polyornithine (15 ug/ml) and fibronectin (1 ug/ml).
bFGF was added to the culture medium on a daily basis to a final concentration of 10-20 ng bFGF/ml medium. The medium was changed every other day.
Additionally, after treatment with bFGF all surviving cells were immunoreactive for the nestin intermediate filament a marker for immature neuroepithelial precursors. […]

[7] = test system: expanded mesencephalic precursors differentiated as free floating reaggregates; experiment: Reaggregation system (roller drum) differentiation, immunohistochemistry of reaggregates; type: cell-based, rat; conditions: for total number of TH-ir cells/sphere in serum-supplemented medium: GDNF, BDNF, NT4/5 10 ng/ml, SHH 2.5 μg/ml, data not shown
Description: Cells were cultured as described in Example 1 and differentiated as free floating aggregates in a medium containing 10% fetal bovine serum (FBS) and maintained in a roller drum system. The cell suspension (200,000 cells/ml) was distributed in 15 ml Falcon tubes (1 ml/tube) and placed in a roller drum (Bellco) and rotated at a speed of 1-4 revolutions per minute and a temperature of 37° C. in a dry incubator (no additional humidity) in an atmosphere containing 5% CO2.
Medium in all these experiments described in this section was Neurobasal/B27 as described above. We tested the effect of GDNF, BDNF, SHH in the presence and in the absence of 10% fetal bovine serum (always with Neurobasal/B27 medium as a “basal medium”)
After 7 days, the test tubes were removed from the roller drum and the reaggregation of the cells was examined immunohistochemistry after sectioning the cells (see below). […] Reaggregates were fixed in 4% paraformalehyde/0.15 picric acid in PBS for 30-60 minutes at room temperature, equilibrated in 30% sucrose, cut into 20 um thick sections on a freezing microtome and adhered to a gelatine precoated glass carrier according to standard histological guidelines.
The differentiation medium for reaggregate cultures consisted of Neurobasal®/2% B27® (Gibco, Life Technologies) with or without fetal bovine serum (FBS; 10%, Gibco), glial derived neurotrophic factor (GDNF; 10 ng/ml; Peprotech), brain derived neurotrophic factor (BDNF; 10 ng/ml; Peprotech), neurotrophin 4/5 (NT4/5; 10 ng/ml; Peprotech), SHH (2.5 μg/ml; kindly provided by Dr. Thomas Muller, at the Labrotory of Molecular Biology, currently at the Max Delbrueck Univ. in Berlin; SHH is now commercially avail. fro R&D).
Using standard immunohistochemical procedures known to those of skill in the art, the following antibodies were used to examine the neuronal phenotypes present in differentiated aggregates: GABA polyclonal 1:2000 (SIGMA), serotonin polyclonal 1:8000 (SIGMA), ChAT polyclonal 1:500 (Chemicon), GFAP polyclonal 1:100 (Chemicon), GalC monoclonal 1:50 (Boehringer-Mannheim),
Total graft volume was estimated using the Cavalieri's estimator as described by Gundersen et al. (1988) APIMS 96, 379-394. TH-ir cells were counted within the outlined graft area as used for volume estimation. Uniform randomly chosen sections of individual reaggregates were analyzed for the total number of TH-ir cells by means of a stereological grid (fractionator). Conventional and confocal images were obtained with Axiophot and Axiovert microscopes respectively (Zeiss). Confocal image stacks were acquired by single and dual wavelength excitation at 488 and 568 nm. […] The effect of serum and growth factors was analyzed using ANOVA and Dunnett posthoc comparisons. […]

## CC(=O)N[C@H](CS)C(=O)O [D-acetylcystein]
[1]
  effect of antioxidants on dopaminergic cell number: none of the antioxidants tested influenced dopaminergic cell number

## O=C1O[C@H]([C@H](O)CO)C(O)=C1O [D-iso ascorbic acid, D-iso-ascorbic acid]
[1]; optimum concentration of 100 μM
  number of dopaminergic neurons, lower than in the ascorbic acid group: 48%

## [Cl-].[K+] [KCl]
[2]; 56 mM KCl in HBSS for 25 minutes vs HBSS only
  increase in dopamine levels in the supernatant: 3-4 fold
[2]; 56 mM KCl in HBSS for 25 minutes, N=3
  dopamine level in the supernatant, evoked release: 572+/−145 pg dopamine/ml

## O=C1O[C@H]([C@@H](O)CO)C(O)=C1O [ascorbic acid]
[1]; 100 uM, 12-14 days expansion, 4-7 days differentiation
  yield of dopaminergic neurons compared with other differentiation agents tested: most effective agent of all agents tested
[1]; FIG. 6
  effect on dopaminergic yield, treatment during cell differentiation (P1 diff.): acts mostly during the differentiation phase
  effect on dopaminergic yield, treatment during early expansion (Po exp.): small improvement in dopaminergic yield
  effect on dopaminergic yield, treatment during late expansion (P1 exp.): slightly negative effect
[1]; during cell differentiation, range 1 nM-1 mM, FIG. 5
  concentration of maximal effect on TH-ir cell number (dose-response): 100 µM
[3]
  differences to control in lipid peroxydation, H2O2 levels and staining intensity for oxydative stress markers: No significant differences
[4]
  dopamine levels after treatment, long-term expanded precursors (P1): significant increase
  dopamine levels after treatment, short term expanded precursors (Po): significant increase

## NCCc1ccc(O)c(O)c1 [dopamine]
[5]
  additional effect on yield of dopaminergic neurons in combination with ascorbic acid (100 uM): no significant additional effect

## O=c1c2ccccc2[se]n1-c1ccccc1 [ebselin]
[1]
  effect of antioxidants on dopaminergic cell number: none of the antioxidants tested influenced dopaminergic cell number

## N[C@@H](CCC(=O)N[C@@H](CS)C(=O)NCC(=O)O)C(=O)O [glutathione]
[1]
  effect of antioxidants on dopaminergic cell number: none of the antioxidants tested influenced dopaminergic cell number

## bFGF: basic fibroblast growth factor, added to proliferating medium to expand precursor cells
[6]
  cell number after 1 week of treatment with bFGF: 7,417×10^3+/−1,066×10^3 cells

B1: NT4/5: neurotrophin 4/5, Peprotech (protein, UniProt P34130 81-210, looked up)
Neurotrophin-4: GVSETAPASRRGELAVCDAVSGWVTDRRTAVDLRGREVEVLGEVPAAGGSPLRQYFFETRCKADNAEEGGPGAGGGGCRGVDRRHWVSECKAKQSYVRALTADAQGRVGWRWIRIDTACVCTLLSRTGRA
[7]
  total number of TH-ir cells/sphere in serum-supplemented medium: did not cause a significant increase

B2: BDNF: brain derived neurotrophic factor, Peprotech (protein, UniProt P23560 19-247, looked up)
Neurotrophic factor BDNF …: APMKEANIRGQGGLAYPGVRTHGTLESVNGPKAGSRGLTSLADTFEHVIEELLDEDQKVRPNEENNKDADLYTSRVMLSSQVPLEPPLLFLLEEYKNYLDAANMSMRVRRHSDPARRGELSVCDSISEWVTAADKKTAVDMSGGTVTVLEKVPVSKGQLKQYFYETKCNPMGYTKEGCRGIDKRHWNSQCRTTQSYVRALTMDSKKRIGWRFIRIDTSCVCTLTIKRGR
[7]
  total number of TH-ir cells/sphere in serum-supplemented medium: did not cause a significant increase

B3: GDNF: glial derived neurotrophic factor, Peprotech (protein, UniProt P39905 78-211, looked up)
Glial cell line-derived …: SPDKQMAVLPRRERNRQAAAANPENSRGKGRRGQRGKNRGCVLTAIHLNVTDLGLGYETKEELIFRYCSGSCDAAETTYDKILKNLSRNRRLVSDKVGQACCRPIAFDDDLSFLDDNLVYHILRKHSAKRCGCI
[7]; GDNF 10 ng/ml, N=8, p<0.05 vs control
  TH-ir cell yield under serum-free conditions: 3451+/−621
[7]
  total number of TH-ir cells/sphere in serum-supplemented medium: did not cause a significant increase
